The target of this test is LRRK2 G2019S enzyme (Homo sapiens (Human), UniProt Q5S007, G2019S). Nature of the test: LRRK2 G2019S TR-FRET biochemical kinase assay (LRRKtide substrate). Particulars: 5 nM LRRK2, 134 μM ATP, 60 minute reaction, 23° C. Summed up:
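5 nM LRRK2 G2019S preincubated 20 min with LRRKtide and compound (3.162-fold dilution series) in Tris pH 7.5, MgCl2, EGTA, Brij-35, DTT, then reacted 60 min at 23 °C with 134 μM ATP. EDTA-stopped; pLRRKtide antibody detection, TR-FRET read at 340 nm excitation, 520/490–495 nm emission.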

Sequence of LRRK2 G2019S enzyme (Q5S007 whole entry G2019S): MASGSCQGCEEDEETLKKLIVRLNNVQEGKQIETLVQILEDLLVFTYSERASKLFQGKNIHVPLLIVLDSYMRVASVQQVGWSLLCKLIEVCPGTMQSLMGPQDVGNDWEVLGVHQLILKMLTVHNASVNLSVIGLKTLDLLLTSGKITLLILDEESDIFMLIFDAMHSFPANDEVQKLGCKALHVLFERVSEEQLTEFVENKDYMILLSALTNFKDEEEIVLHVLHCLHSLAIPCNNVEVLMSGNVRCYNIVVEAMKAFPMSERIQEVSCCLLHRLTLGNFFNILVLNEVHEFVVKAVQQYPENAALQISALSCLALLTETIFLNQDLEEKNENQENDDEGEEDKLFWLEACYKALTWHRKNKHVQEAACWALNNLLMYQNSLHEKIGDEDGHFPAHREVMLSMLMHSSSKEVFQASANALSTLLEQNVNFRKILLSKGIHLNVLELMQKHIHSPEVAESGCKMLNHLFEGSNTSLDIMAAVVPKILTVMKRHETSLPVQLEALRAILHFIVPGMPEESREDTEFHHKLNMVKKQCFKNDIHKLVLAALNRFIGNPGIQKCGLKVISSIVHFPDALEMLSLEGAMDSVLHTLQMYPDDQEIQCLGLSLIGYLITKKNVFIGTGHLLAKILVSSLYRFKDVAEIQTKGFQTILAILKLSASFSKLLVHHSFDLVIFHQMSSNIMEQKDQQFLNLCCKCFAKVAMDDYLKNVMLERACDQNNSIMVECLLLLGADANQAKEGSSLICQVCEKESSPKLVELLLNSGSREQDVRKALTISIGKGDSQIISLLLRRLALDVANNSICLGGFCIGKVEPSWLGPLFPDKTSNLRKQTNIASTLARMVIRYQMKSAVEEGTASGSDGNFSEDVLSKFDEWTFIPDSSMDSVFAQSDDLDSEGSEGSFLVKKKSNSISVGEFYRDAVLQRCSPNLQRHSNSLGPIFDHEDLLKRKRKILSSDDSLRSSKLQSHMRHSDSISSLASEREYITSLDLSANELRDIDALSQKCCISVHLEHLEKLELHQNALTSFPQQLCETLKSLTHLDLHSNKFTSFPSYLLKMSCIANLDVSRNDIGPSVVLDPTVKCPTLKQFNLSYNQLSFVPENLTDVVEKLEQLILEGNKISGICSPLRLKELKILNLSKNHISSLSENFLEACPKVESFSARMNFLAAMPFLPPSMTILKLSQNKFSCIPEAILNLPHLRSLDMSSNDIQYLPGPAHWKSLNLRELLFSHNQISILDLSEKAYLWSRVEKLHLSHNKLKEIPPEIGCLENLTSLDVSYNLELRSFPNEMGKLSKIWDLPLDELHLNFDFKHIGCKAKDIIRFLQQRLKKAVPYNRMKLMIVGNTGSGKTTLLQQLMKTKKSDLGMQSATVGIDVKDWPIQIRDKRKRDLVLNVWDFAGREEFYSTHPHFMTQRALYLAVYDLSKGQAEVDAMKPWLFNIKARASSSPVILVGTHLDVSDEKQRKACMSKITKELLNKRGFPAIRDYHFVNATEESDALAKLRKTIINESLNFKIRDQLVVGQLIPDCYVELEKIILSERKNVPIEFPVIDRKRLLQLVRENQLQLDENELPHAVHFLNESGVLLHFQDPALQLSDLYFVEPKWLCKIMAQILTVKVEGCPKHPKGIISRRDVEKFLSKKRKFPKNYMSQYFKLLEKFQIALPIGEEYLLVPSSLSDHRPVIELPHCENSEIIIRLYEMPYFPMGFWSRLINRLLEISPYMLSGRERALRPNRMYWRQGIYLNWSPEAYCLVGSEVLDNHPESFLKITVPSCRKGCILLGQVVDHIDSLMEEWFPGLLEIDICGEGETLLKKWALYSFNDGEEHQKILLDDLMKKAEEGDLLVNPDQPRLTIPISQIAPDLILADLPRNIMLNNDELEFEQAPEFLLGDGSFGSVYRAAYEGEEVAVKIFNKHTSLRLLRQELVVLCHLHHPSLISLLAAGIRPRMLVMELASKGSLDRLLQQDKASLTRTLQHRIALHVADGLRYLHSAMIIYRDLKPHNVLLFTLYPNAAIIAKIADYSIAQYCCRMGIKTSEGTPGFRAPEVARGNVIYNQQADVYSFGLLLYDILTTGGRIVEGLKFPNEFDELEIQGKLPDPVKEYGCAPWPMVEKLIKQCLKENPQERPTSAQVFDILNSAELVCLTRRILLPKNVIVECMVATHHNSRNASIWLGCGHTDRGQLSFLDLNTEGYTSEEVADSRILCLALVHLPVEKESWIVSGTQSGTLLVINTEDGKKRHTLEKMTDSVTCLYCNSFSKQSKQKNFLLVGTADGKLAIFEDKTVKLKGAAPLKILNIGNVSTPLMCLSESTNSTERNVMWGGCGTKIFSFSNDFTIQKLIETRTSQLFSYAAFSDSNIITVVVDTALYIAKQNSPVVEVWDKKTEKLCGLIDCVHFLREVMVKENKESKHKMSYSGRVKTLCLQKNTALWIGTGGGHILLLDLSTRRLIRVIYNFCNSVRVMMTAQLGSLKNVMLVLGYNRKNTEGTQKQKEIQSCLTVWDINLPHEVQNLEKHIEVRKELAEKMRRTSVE

Turning to `Cc1nn(C(F)(F)C(N)=O)cc1Nc1ncc(C(F)(F)F)c(C2CC2)n1` [Compound A-87], the IC50 (Table A-2) was less than 30 nM.

As for `Cc1c(Nc2ncc(C(F)(F)F)c(C3CC3)n2)cnn1C1(C)CCNC1=O` (stereo not drawn) [Compound A-93], the concentration for half-maximal inhibition (IC50) (Table A-2) was less than 30 nM.

In the case of `CNc1nc(Nc2cnn(C)c2C)nc2[nH]cc(Cl)c12` [Compound B-1, 5-chloro-N^2-(1,5-dimethylpyrazol-4-yl)-N4-methyl-7H-pyrrolo[2,3-d]pyrimidine-2,4-diamine], the IC50 (Table B-2) lay within 1 to 2 nM.

The compound `CCNc1nc(Nc2cn(C(C)(C)C#N)nc2C)nc2[nH]cc(Cl)c12` [Compound B-2, 2-[4-[[5-chloro-4-(ethylamino)-7H-pyrrolo[2,3-d]pyrimidin-2-yl]amino]-3-methyl-pyrazol-1-yl]-2-methyl-propanenitrile] yielded a concentration for half-maximal inhibition (IC50) (Table B-2) not above 1 nM.

`CCOc1nc(Nc2cn(C(C)(C)C#N)nc2C)nc2[nH]cc(Cl)c12` [Compound B-3, 2-[4-[[5-chloro-4-ethoxy-7H-pyrrolo[2,3-d]pyrimidin-2-yl]amino]-3-methyl-pyrazol-1-yl]-2-methyl-propanenitrile]: the half-maximal inhibitory concentration (IC50) (Table B-2) was not above 1 nM.

As to `CNc1nc(Nc2cn(C)nc2C)nc2[nH]cc(Cl)c12` [Compound B-4, 5-chloro-N^2-(1,3-dimethyl-1H-pyrazol-4-yl)-N^4-methyl-7H-pyrrolo[2,3-d]pyrimidine-2,4-diamine], the IC50 (Table B-2) was 2 to 20 nM.

For the setting “Table B-2”, `COc1nc(Nc2cn(C(C)(C)C#N)nc2C)nc2[nH]cc(Cl)c12` [Compound B-5, 2-[4-[(5-chloro-4-methoxy-7H-pyrrolo[2,3-d]pyrimidin-2-yl)amino]-3-methyl-pyrazol-1-yl]-2-methyl-propanenitrile] had an IC50 of 1 to 2 nM.

As to `CNc1nc(Nc2cn(C(C)(C)C#N)nc2C)nc2[nH]cc(Cl)c12` [Compound B-6, 2-[4-[[5-Chloro-4-(methylamino)-7H-pyrrolo[2,3-d]pyrimidin-2-yl]amino]-3-methyl-pyrazol-1-yl]-2-methyl-propanenitrile], for the setting “Table B-2”, the IC50 was not above 1 nM.

With `COc1nc(Nc2cn(C(C)(C)C#N)nc2C)nc2[nH]cnc12` [Compound B-7, 2-(4-((6-methoxy-9H-purin-2-yl)amino)-3-methyl-1H-pyrazol-1-yl)-2-methylpropanenitrile], for the setting “Table B-2”, the IC50 is 2 to 20 nM.

The compound `COc1nc(Nc2cnn(C)c2C)nc2[nH]cc(Cl)c12` [Compound B-8, 5-chloro-N-(1,5-dimethylpyrazol-4-yl)-4-methoxy-7H-pyrrolo[2,3-d]pyrimidin-2-amine] yielded an IC50 (Table B-2) of 1 to 2 nM.

Under “Table B-2”, `COc1nc(Nc2cn(C)nc2C)nc2[nH]cc(Cl)c12` [Compound B-9, 5-chloro-N-(1,3-dimethylpyrazol-4-yl)-4-methoxy-7H-pyrrolo[2,3-d]pyrimidin-2-amine] had an IC50 of 2 to 20 nM.

Regarding `CNc1nc(Nc2cn(C(C)(C)C#N)nc2C)nc2[nH]cc(F)c12` [Compound B-10, 2-(4-((5-fluoro-4-(methylamino)-7H-pyrrolo[2,3-d]pyrimidin-2-yl)amino)-3-methyl-1H-pyrazol-1-yl)-2-methylpropanenitrile], the half-inhibitory concentration (IC50) (Table B-2) lay within 1 to 2 nM.

Under “Table B-2”, `COc1nc(Nc2cn(C(C)(C)C#N)nc2C)nc2[nH]cc(F)c12` [Compound B-11, 2-[4-[(5-fluoro-4-methoxy-7H-pyrrolo[2,3-d]pyrimidin-2-yl)amino]-3-methyl-pyrazol-1-yl]-2-methyl-propanenitrile] gave an IC50 of 1 to 2 nM.

`CCOc1nc(Nc2cn(C(C)(C)C#N)nc2C)nc2[nH]cnc12` [Compound B-12, 2-[4-[(6-ethoxy-9H-purin-2-yl)amino]-3-methyl-pyrazol-1-yl]-2-methyl-propanenitrile] showed an IC50 (Table B-2) of 2 to 20 nM.

As for `COc1nc(Nc2cn(C(C)(C)C#N)nc2C)nc2[nH]cc(C3CC3)c12` [Compound B-13, 2-[4-[(5-cyclopropyl-4-methoxy-7H-pyrrolo[2,3-d]pyrimidin-2-yl)amino]-3-methyl-pyrazol-1-yl]-2-methyl-propanenitrile], the IC50 (Table B-2) lay within 2 to 20 nM.

The values are drawn from patent US11214565B2, “Compound, compositions, and methods” (Denali Therapeutics Inc., priority 2015, dated 2022).
